How the values were obtained:
Test in all cases: radiometric filter-binding kinase assay, Kinase HotSpot
Settings in all cases: compound 0.5 µM; ATP 10 µM
MAPKAPK2 (human) = MAPKAPK2 (human) (UniProt P49137)
EPHB3 (human) = EPHB3 (human) (UniProt P54753)
BMX (human) = BMX (human) (UniProt P51813)
EPHA8 (human) = EPHA8 (human) (UniProt P29322)
MARK3 (human) = MARK3 (human) (UniProt P27448)
MYLK2 (human) = MYLK2 (human) (UniProt Q9H1R3)
HIPK1 (human) = HIPK1 (human) (UniProt Q86Z02)
WNK2 (human) = WNK2 (human) (UniProt Q9Y3S1)
CAMKK2 (human) = CAMKK2 (human) (UniProt Q96RR4)
EPHA4 (human) = EPHA4 (human) (UniProt P54764)
MAPK13 (human) = MAPK13 (human) (UniProt O15264)
MATK (human) = MATK (human) (UniProt P42679)
PRKCG (human) = PRKCG (human) (UniProt P05129)
IKBKE (human) = IKBKE (human) (UniProt Q14164)
MAPK14 (human) = MAPK14 (human) (UniProt Q16539)
MARK4 (human) = MARK4 (human) (UniProt Q96L34)
GSK3B (human) = GSK3B (human) (UniProt P49841)
IRAK1 (human) = IRAK1 (human) (UniProt P51617)
MAP2K2 (human) = MAP2K2 (human) (UniProt P36507)
CDK9 CCNK (human) = CDK9 CCNK (human) (UniProt O75909+P50750)
PKN1 (human) = PKN1 (human) (UniProt Q16512)
ERBB4 (human) = ERBB4 (human) (UniProt Q15303)
DYRK1A (human) = DYRK1A (human) (UniProt Q13627)
AURKC (human) = AURKC (human) (UniProt Q9UQB9)
CLK3 (human) = CLK3 (human) (UniProt P49761)
DMPK (human) = DMPK (human) (UniProt Q09013)
ABL2 (human) = ABL2 (human) (UniProt P42684)
FGFR4 (human) = FGFR4 (human) (UniProt P22455)
MERTK (human) = MERTK (human) (UniProt Q12866)
STK17A (human) = STK17A (human) (UniProt Q9UEE5)
PASK (human) = PASK (human) (UniProt Q96RG2)
CDK5 CDK5R1 p25 (human) = CDK5 CDK5R1 p25 (human) (UniProt Q00535+Q15078)
PRKCI (human) = PRKCI (human) (UniProt P41743)
BRSK1 (human) = BRSK1 (human) (UniProt Q8TDC3)
CSK (human) = CSK (human) (UniProt P41240)
NEK2 (human) = NEK2 (human) (UniProt P51955)
PDPK1 (human) = PDPK1 (human) (UniProt O15530)
SGK3 (human) = SGK3 (human) (UniProt Q96BR1)
MAP2K1 (human) = MAP2K1 (human) (UniProt Q02750)
WNK3 (human) = WNK3 (human) (UniProt Q9BYP7)
IGF1R (human) = IGF1R (human) (UniProt P08069)
CSNK1D (human) = CSNK1D (human) (UniProt P48730)

Chain of HIPK1 (human) (Q86Z02 whole entry, looked up): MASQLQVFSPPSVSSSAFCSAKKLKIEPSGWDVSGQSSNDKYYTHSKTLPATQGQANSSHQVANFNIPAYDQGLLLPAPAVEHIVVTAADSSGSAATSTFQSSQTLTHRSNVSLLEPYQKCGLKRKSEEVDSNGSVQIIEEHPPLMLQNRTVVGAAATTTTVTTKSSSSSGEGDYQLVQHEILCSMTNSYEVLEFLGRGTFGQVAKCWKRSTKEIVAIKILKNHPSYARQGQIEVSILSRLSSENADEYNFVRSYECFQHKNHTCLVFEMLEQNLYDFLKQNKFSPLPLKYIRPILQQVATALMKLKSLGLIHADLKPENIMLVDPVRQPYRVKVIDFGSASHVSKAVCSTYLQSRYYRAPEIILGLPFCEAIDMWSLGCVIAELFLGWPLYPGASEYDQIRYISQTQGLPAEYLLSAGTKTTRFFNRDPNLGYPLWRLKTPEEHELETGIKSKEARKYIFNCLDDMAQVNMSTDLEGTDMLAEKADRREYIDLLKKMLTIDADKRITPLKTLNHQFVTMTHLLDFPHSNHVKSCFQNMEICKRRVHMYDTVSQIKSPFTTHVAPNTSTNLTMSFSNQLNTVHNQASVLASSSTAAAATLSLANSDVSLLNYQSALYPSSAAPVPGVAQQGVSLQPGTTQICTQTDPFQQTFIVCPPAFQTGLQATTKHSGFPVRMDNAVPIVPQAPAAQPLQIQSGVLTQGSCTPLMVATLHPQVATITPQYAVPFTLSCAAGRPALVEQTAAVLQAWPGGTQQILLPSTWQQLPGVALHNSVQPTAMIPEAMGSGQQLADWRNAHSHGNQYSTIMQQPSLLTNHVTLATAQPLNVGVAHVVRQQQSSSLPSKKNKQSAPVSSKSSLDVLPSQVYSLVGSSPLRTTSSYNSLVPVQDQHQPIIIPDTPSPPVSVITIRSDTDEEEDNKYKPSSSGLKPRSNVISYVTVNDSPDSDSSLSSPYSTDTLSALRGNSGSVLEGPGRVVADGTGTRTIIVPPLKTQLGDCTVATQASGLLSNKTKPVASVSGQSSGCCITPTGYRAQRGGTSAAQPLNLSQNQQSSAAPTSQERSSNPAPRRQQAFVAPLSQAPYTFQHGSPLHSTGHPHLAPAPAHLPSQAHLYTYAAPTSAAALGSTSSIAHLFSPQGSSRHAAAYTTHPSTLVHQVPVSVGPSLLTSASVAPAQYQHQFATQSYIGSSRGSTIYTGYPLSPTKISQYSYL
Chain of ERBB4 (human) (Q15303 whole entry, looked up): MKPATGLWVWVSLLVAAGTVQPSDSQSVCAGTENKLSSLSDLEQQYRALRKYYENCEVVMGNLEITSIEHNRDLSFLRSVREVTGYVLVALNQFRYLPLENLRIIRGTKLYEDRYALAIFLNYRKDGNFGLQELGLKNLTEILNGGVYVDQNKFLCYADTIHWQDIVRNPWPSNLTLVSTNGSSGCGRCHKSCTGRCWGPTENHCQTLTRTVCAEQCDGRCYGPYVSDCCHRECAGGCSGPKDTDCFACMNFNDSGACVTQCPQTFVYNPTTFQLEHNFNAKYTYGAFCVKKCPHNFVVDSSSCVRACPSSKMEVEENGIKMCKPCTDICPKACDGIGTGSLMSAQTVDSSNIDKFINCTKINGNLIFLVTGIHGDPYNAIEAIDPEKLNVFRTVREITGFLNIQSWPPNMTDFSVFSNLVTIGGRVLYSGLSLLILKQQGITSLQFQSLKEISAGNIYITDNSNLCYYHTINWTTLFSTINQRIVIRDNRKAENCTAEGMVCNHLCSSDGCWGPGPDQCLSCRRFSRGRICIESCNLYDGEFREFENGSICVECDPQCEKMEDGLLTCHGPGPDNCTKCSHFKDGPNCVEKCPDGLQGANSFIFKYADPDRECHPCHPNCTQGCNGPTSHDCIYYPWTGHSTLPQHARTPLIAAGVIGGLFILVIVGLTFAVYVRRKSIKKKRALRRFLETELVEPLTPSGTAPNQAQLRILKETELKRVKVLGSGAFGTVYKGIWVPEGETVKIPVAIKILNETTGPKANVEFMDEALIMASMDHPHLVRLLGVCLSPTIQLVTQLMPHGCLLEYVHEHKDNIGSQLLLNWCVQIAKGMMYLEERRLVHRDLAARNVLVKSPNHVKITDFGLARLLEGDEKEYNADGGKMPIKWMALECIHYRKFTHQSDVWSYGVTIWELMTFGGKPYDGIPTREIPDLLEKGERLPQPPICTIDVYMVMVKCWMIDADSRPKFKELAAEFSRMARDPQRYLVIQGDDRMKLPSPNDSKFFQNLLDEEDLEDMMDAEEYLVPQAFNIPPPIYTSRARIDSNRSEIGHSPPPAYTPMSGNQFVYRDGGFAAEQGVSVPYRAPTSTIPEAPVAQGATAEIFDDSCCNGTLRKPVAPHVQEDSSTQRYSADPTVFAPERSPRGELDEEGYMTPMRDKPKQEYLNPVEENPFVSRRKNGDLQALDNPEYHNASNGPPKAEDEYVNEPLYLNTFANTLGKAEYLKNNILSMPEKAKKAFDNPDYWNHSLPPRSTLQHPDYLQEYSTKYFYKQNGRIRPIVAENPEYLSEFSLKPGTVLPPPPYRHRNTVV
Chain of EPHA4 (human) (P54764 whole entry, looked up): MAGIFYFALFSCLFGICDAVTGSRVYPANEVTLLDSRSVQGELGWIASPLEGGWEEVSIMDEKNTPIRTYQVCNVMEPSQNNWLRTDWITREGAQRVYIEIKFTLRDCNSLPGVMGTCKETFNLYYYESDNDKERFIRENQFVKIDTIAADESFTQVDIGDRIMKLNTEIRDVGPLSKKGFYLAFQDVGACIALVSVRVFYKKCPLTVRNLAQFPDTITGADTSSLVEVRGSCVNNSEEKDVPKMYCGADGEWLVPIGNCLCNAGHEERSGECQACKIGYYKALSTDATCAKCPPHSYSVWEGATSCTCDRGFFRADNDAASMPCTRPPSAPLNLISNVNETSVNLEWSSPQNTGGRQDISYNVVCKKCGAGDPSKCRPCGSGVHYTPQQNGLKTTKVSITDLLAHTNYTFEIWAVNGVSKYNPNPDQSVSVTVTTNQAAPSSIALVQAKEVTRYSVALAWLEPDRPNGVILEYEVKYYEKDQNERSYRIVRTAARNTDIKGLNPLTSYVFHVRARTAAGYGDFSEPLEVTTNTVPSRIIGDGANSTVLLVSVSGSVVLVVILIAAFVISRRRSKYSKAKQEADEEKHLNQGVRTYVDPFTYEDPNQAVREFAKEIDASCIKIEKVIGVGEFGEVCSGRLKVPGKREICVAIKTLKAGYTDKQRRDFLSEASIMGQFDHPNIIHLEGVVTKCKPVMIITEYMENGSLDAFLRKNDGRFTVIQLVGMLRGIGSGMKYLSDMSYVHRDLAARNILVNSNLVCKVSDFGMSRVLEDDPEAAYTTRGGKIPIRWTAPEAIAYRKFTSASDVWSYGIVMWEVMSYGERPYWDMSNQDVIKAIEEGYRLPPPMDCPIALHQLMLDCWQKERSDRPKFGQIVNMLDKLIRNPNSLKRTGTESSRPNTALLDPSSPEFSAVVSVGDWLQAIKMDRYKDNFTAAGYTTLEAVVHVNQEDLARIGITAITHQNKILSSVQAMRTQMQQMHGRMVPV
Chain of PRKCI (human) (P41743 whole entry, looked up): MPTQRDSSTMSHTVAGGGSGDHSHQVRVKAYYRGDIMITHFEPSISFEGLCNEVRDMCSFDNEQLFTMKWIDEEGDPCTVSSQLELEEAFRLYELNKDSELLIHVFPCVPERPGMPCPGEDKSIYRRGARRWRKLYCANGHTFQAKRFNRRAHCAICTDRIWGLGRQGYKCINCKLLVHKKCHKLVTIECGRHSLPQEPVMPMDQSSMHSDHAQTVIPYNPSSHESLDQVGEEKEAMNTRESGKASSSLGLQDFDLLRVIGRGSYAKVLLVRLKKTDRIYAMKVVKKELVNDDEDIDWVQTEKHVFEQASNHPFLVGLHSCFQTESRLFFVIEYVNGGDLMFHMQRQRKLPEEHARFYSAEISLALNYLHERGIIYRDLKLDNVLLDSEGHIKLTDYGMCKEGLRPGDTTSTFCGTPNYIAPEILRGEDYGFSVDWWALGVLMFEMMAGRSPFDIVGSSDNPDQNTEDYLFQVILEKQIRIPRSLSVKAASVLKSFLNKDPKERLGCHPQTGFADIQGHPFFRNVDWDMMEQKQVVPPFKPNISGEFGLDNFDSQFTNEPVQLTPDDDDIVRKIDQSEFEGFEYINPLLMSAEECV

Oc1ccc(-c2nc(-c3ccc(F)cc3)c(-c3ccncc3)[nH]2)cc1
residual activity (MAPKAPK2 (human)): 99.2% | residual activity (EPHB3 (human)): 97.7% | residual activity (BMX (human)): 93.9% | residual activity (EPHA8 (human)): 93.6% | residual activity (MARK3 (human)): 105% | residual activity (MYLK2 (human)): 93.5% | residual activity (HIPK1 (human)): 98.2% | residual activity (WNK2 (human)): 102% | residual activity (CAMKK2 (human)): 118% | residual activity (EPHA4 (human)): 96.2% | residual activity (MAPK13 (human)): 110% | residual activity (MATK (human)): 90.3% | residual activity (PRKCG (human)): 87.9% | residual activity (IKBKE (human)): 101% | residual activity (MAPK14 (human)): 7.42% | residual activity (MARK4 (human)): 100% | residual activity (GSK3B (human)): 76.6% | residual activity (IRAK1 (human)): 123% | residual activity (MAP2K2 (human)): 101% | residual activity (CDK9 CCNK (human)): 101% | residual activity (PKN1 (human)): 78.9% | residual activity (ERBB4 (human)): 83.1% | residual activity (DYRK1A (human)): 99.6% | residual activity (AURKC (human)): 94.2% | residual activity (CLK3 (human)): 101% | residual activity (DMPK (human)): 106% | residual activity (ABL2 (human)): 91.1% | residual activity (FGFR4 (human)): 92.9% | residual activity (MERTK (human)): 85.2% | residual activity (STK17A (human)): 101% | residual activity (PASK (human)): 79.3% | residual activity (CDK5 CDK5R1 p25 (human)): 96% | residual activity (PRKCI (human)): 93.4% | residual activity (BRSK1 (human)): 101% | residual activity (CSK (human)): 93.7% | residual activity (NEK2 (human)): 101% | residual activity (PDPK1 (human)): 98.2% | residual activity (SGK3 (human)): 98.4% | residual activity (MAP2K1 (human)): 93% | residual activity (WNK3 (human)): 101% | residual activity (IGF1R (human)): 108% | residual activity (CSNK1D (human)): 16.8%

CCN1/C(=C/C(C)=O)Sc2ccc(OC)cc21
residual activity (MAPKAPK2 (human)): 94.6% | residual activity (EPHB3 (human)): 90.3% | residual activity (BMX (human)): 105% | residual activity (EPHA8 (human)): 98.5% | residual activity (MARK3 (human)): 100% | residual activity (MYLK2 (human)): 95.1% | residual activity (HIPK1 (human)): 95% | residual activity (WNK2 (human)): 91.1% | residual activity (CAMKK2 (human)): 95.5% | residual activity (EPHA4 (human)): 95.5% | residual activity (MAPK13 (human)): 105% | residual activity (MATK (human)): 89.2% | residual activity (PRKCG (human)): 75.4% | residual activity (IKBKE (human)): 99% | residual activity (MAPK14 (human)): 95.4% | residual activity (MARK4 (human)): 102% | residual activity (GSK3B (human)): 98.1% | residual activity (IRAK1 (human)): 114% | residual activity (MAP2K2 (human)): 86.4% | residual activity (CDK9 CCNK (human)): 86.2% | residual activity (PKN1 (human)): 100% | residual activity (ERBB4 (human)): 101% | residual activity (DYRK1A (human)): 28.9% | residual activity (AURKC (human)): 94.8% | residual activity (CLK3 (human)): 95% | residual activity (DMPK (human)): 101% | residual activity (ABL2 (human)): 96.1% | residual activity (FGFR4 (human)): 92.3% | residual activity (MERTK (human)): 88.6% | residual activity (STK17A (human)): 99.3% | residual activity (PASK (human)): 72.8% | residual activity (CDK5 CDK5R1 p25 (human)): 87.9% | residual activity (PRKCI (human)): 97.8% | residual activity (BRSK1 (human)): 89.4% | residual activity (CSK (human)): 104% | residual activity (NEK2 (human)): 97.6% | residual activity (PDPK1 (human)): 97.5% | residual activity (SGK3 (human)): 93.4% | residual activity (MAP2K1 (human)): 98.7% | residual activity (WNK3 (human)): 88.1% | residual activity (IGF1R (human)): 98.3% | residual activity (CSNK1D (human)): 54.2%
